Active and inactive are the calls of the source. The rule behind the calls is not given here.
Experiments:
[1] = Toxicity in ICR mouse bearing mouse H22 cells assessed as damage in liver at 2.5 mg/kg, iv pretreated for 4 hrs followed by exposure to laser irradiation of 808 nm for 5 mins on every 2 days treated for 15 days by H and E staining based analysis; format: organism-based; details: in vivo, 360 h, time 15 day
Mitochondrial membrane = experiment: Inhibition of mitochondrial membrane potential in mouse 4T1 cells assessed as green fluorescence at 3.12 uM preincubated for 4 hrs followed by exposure to laser irradiation of 808 nm for 2 mins and subsequent incubation for 20 hrs by JC-1 dye based analysis; format: cell membranes; details: time 1442.0 min
[2] = Toxicity in ICR mouse bearing mouse H22 cells assessed as damage in kidney at 2.5 mg/kg, iv pretreated for 4 hrs followed by exposure to laser irradiation of 808 nm for 5 mins on every 2 days treated for 15 days by H and E staining based analysis; format: organism-based; details: in vivo, 360 h, time 15 day
[3] = Toxicity in female BALB/c mouse bearing mouse 4T1 cells assessed as damage in kidney at 2.5 mg/kg, iv pretreated for 4 hrs followed by exposure to laser irradiation of 808 nm for 5 mins on every 2 days treated for 15 days by H and E staining based analysis; format: organism-based; details: in vivo, 360 h, time 15 day
H22 = experiment: Antitumor activity against mouse H22 cells implanted in female ICR mouse assessed as tumor growth inhibition at 2.5 mg/kg, iv pretreated for 4 hrs followed by exposure to laser irradiation of 808 nm for 5 mins on every 2 days treated for 15 days; format: functional, organism-based; details: time 15.0 day
[4] = Aqueous solubility of compound by absorbance based assay; format: physicochemical; details: buffer
[5] = Drug accumulation in tumor of female BALB/c mouse bearing mouse 4T1 cells at 2.5 mg/kg, iv measured up to 12 hrs by fluorescence imaging analysis; format: ADME, organism-based, Neoplasm; details: in vivo
4T1 [6] = experiment: Cytotoxicity against mouse 4T1 cells assessed as cell viability under dark condition up to 25 uM incubated for 24 hrs by MTT assay relative to control; format: functional
[7] = Toxicity in ICR mouse bearing mouse H22 cells assessed as damage in lung at 1.8 mg/kg, iv pretreated for 4 hrs followed by exposure to laser irradiation of 808 nm for 5 mins on every 2 days treated for 15 days by H and E staining based analysis; format: organism-based; details: in vivo, 360 h, time 15 day
[8] = Toxicity in female BALB/c mouse bearing mouse 4T1 cells assessed as damage in spleen at 1.8 mg/kg, iv pretreated for 4 hrs followed by exposure to laser irradiation of 808 nm for 5 mins on every 2 days treated for 15 days by H and E staining based analysis; format: organism-based; details: in vivo, 360 h, time 15 day
[9] = Toxicity in female BALB/c mouse bearing mouse 4T1 cells assessed as damage in kidney at 1.8 mg/kg, iv pretreated for 4 hrs followed by exposure to laser irradiation of 808 nm for 5 mins on every 2 days treated for 15 days by H and E staining based analysis; format: organism-based; details: in vivo, 360 h, time 15 day
4T1 [10] = experiment: Antitumor activity against mouse 4T1 cells implanted in female BALB/c mouse assessed as tumor growth inhibition at 1.8 mg/kg, iv pretreated for 4 hrs followed by exposure to laser irradiation of 808 nm for 5 mins on every 2 days treated for 15 days; format: functional, organism-based; details: time 15.0 day
[11] = Drug accumulation in tumor of female BALB/c mouse bearing mouse 4T1 cells assessed as increase in fluorescence intensity at 1.8 mg/kg, iv measured after 4 hrs by fluorescence imaging analysis; format: ADME, organism-based, Neoplasm; details: in vivo
4T1 [12] = experiment: Photothermal cytotoxicity against mouse 4T1 cells up to 25 uM preincubated for 4 hrs followed by exposure to laser irradiation of 808 nm for 2 mins and subsequent incubation for 20 hrs by MTT assay; format: functional, cell-based
[13] = Toxicity in female BALB/c mouse bearing mouse 4T1 cells assessed as damage in lung at 1.8 mg/kg, iv pretreated for 4 hrs followed by exposure to laser irradiation of 808 nm for 5 mins on every 2 days treated for 15 days by H and E staining based analysis; format: organism-based; details: in vivo, 360 h, time 15 day
[14] = Toxicity in female BALB/c mouse bearing mouse 4T1 cells assessed as damage in liver at 1.8 mg/kg, iv pretreated for 4 hrs followed by exposure to laser irradiation of 808 nm for 5 mins on every 2 days treated for 15 days by H and E staining based analysis; format: organism-based; details: in vivo, 360 h, time 15 day

Row | SMILES | Activity [1] | inhibition (Mitochondrial membrane) | Activity [2] | Activity [3] | inhibition (H22) | solubility [4] | Drug uptake [5] | Activity (4T1 [6]) [%] | Activity [7] | Activity [8] | Activity [9] | inhibition (4T1 [10]) | Drug uptake [11] | Activity (4T1 [12]) | Activity [13] | Activity [14]
1 | COCCOCCOCCN1/C(=C/C=C/C(=C/C=C/C2=[N+](CCOCCOCCOC)c3ccccc3C2(C)C)C(=O)OC)C(C)(C)c2ccccc21.[I-] | Non-toxic | Active | Non-toxic | Non-toxic | Active | soluble | Active | 55 |  |  |  |  |  |  |  | 
2 | COC(=O)C(=C\C=C\C1=[N+](C)c2ccccc2C1(C)C)/C=C/C=C1/N(C)c2ccccc2C1(C)C.[I-] |  |  |  |  |  |  |  |  | Non-toxic | Non-toxic | Non-toxic | Active; Minimal Effect Was Observed | Active | Not active; Limited Photo-Thermal Toxicity Was Observed | Non-toxic | Non-toxic
